Measured values from patent US11753407B2, “Compounds for treating spinal muscular atrophy” (PTC Therapeutics, Inc., priority 2012, dated 2023).

Tested on: Smn protein produced from the SMN2 gene
Assay: Smn protein in tissues of neonatal Δ7 SMA mice
Type: in vivo
Settings: neonatal SMA Δ7 homozygous knockout mice, IP QD PND 3 to PND 9, brain, spinal cord
Experimental: This Smn protein assay compares tissues from test compound treated mice with those from DMSO vehicle treated mice to determine the increase in levels of Smn protein produced from the human SMN2 gene.
Protocol. The tissue samples in Safe-Lock tubes are weighed and the volume of RIPA buffer containing the protease inhibitor cocktail is added based on the weight to volume ratios for each type of tissue: Brain (50 mg/mL), Muscle (50 mg/mL) and Spinal Cord (25 mg/mL).
Tissues are homogenized using the TissueLyzer by bead milling. 5 mm stainless steel beads are added to the sample and shaken vigorously for 5 minutes at 30 Hz in the TissueLyzer. […] Fluorescence for each well of the plate at 665 nm and 620 nm is measured on an EnVision multilabel plate reader (Perkin-Elmer). The total protein in the tissue homogenate is measured using the BCA assay according to the manufacturer's protocol.
The normalized fluorescence signal is calculated for each sample, Blank and vehicle control well by dividing the signal at 665 nm by the signal at 620 nm. Normalizing the signal accounts for possible fluorescence quenching due to the matrix effect of the tissue homogenate. […] The ΔF value for each tissue sample well is divided by the total protein quantity (determined using the BCA assay) for that tissue sample. […]

COc1ccc(-c2cc(=O)n3cc(N4CCNCC4)ccc3n2)cc1OC [Cpd 6, 2-(3,4-dimethoxyphenyl)-7-(piperazin-1-yl)-4H-pyrido[1,2-a]pyrimidin-4-one]
total protein normalized Smn level (muscle, skin (FIGS. 12a-d)): dose dependently increased in brain, spinal cord, muscle, and skin tissues

Cc1cn2nc(-c3cc(=O)n4cc(N5CCN(C)CC5)ccc4n3)cc2c(C)n1 [Cpd 170, 2-(4,6-dimethylpyrazolo[1,5-a]pyrazin-2-yl)-7-(4-methylpiperazin-1-yl)-4H-pyrido[1,2-a]pyrimidin-4-one]
total protein normalized Smn level (muscle (FIGS. 12e-g)): dose dependently increased
